PubChem BioAssay (NCI)
Where “and” joins values, the source holds several entries; their conditions need not be identical. Identical values can stand only once.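 Five concentrations, 48 hours, 96-well plates. GI50 is the concentration that inhibits growth by half. TGI denotes the concentration required for complete inhibition of growth.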

System: M14 melanoma
Assay: NCI-60 cell line screen, 48 h

SMILES | GI50 [µM] | TGI [µM]
CC(=O)OCC1OC([S-])C(OC(C)=O)C(OC(C)=O)C1OC(C)=O.CC[PH+](CC)CC.CC[PH+](CC)CC.[Au].[Au] (stereo unspecified) | 0.14 | 0.322
Cc1cc(C)n(CCNCCn2nc(C)cc2C)n1 | – | > 100
COc1cc2c(cc1OCc1ccccc1)CNCC2 | – | > 100
O=C(CN1CCCCC1)N1CCc2c([nH]c3ccccc23)C1c1cccnc1 (stereo unspecified) | – | > 100
O=C(O)c1cc(O)c2c(c1)C(C1c3cc(C(=O)O)cc(O)c3C(=O)c3c(OC4OC(CO)C(O)C(O)C4O)cccc31)c1cccc(OC3OC(CO)C(O)C(O)C3O)c1C2=O (stereo unspecified) | > 100 | > 100
O/N=C\c1c(O)ccc2ccccc12 | – | > 100
COc1cc2cn3c4ccc(O)cc4[nH]c(=O)c3c2cc1OC | 0.0206 | 1.64
Cc1n(Cc2ccc3ccccc3c2)cc[n+]1Cc1ccc2ccccc2c1 | 1.12 | 3.46
Cc1c(C2Nc3ccccc3C2C)[nH]c2ccccc12 (stereo unspecified) | 15.3 | 38.7
O=C(CCC(=O)Nc1cccc(Cl)c1)CC(=O)c1ccc(Cl)cc1 | – | > 100
O=C(CCCN1CC=C(n2c(=O)[nH]c3ccccc32)CC1)c1ccc(F)cc1 | 23 | 65.5
CC(=O)Oc1ccccc1C(=O)N=C1[Se]CCCN1C(=O)c1ccccc1OC(C)=O | 1.86 | 4.68
COc1ccc(C2C(C#N)=C(N)OC3=C2COc2ccc(F)cc23)cc1OC (stereo unspecified) | 40.1 | > 100
CCCS(=O)(=O)Nc1ccc(Nc2c3ccccc3nc3ccccc23)c(OC)c1 | – | 17.8
CCN(CC)CC(C)(C)C(=O)/C=C/c1ccc(Cl)c(Cl)c1 | 1.66 | 3.39
CN(C)Cc1c[nH]c2c1C(=O)c1c(c(O)c3ccccc3c1O)C2=O | 17.2 | 40.4
O=C(CSc1nnc(-c2ccccc2NC(=O)C(F)(F)F)c(=O)[nH]1)NC(=O)Nc1ccccc1 | – | > 100
N#CC1Nc2ccccc2[C@@H](O)C1O (stereo partly specified) | – | > 100
O=C1c2ccn(CCCCNC(CO)(CO)CO)c2C(=O)c2c1c(O)c1ccccc1c2O | 1.86 | 3.59

System: NCI-H522 lung
Assay: NCI-60 cell line screen, 48 h

SMILES | TGI | GI50
COc1ccccc1/C=C/c1cnccn1 | > 10 µM | –
Nc1nc(Nc2ccccc2)c2ncn(Cc3cc4c(cc3Br)OCO4)c2n1 | 0.207 µM | 0.0316 µM
O=C(Nc1cccc(Cl)c1)c1cc2ccccc2cc1O | 7.09 µM and 7.92 µM | 1.03 µM and 0.583 µM
Nc1c(C(=O)N/N=C/c2ccc(-c3ccc(Cl)cc3)o2)cnn1-c1ccnc2c(C(F)(F)F)cccc12 | > 100 µM | > 100 µM
CCCCCc1c(C)[nH]c(/C=C2\N=C(c3ccc[nH]3)C=C2CC)c1C | 0.106 µM | < 0.01 µM
CC(=O)Oc1ccccc1C(=O)N=C1[Se]CCN1C(=O)c1ccccc1OC(C)=O | 2.7 µM | 1.22 µM
CC(C)c1ccccc1S(=O)c1ccccc1C(C)(C)O (stereo unspecified) | > 100 µM | –
CC(C)(C)C(=O)/C=C/c1ccc(Oc2ccccc2)cc1 | 24.1 µM | –
CCOC(=O)[C@H](CCCNC(=O)OC(C)(C)C)NCc1ccc(OC)c(OC)c1 | > 100 µM | –
COC(COC(=O)N1CCN(C=O)CC1)C1=C(N2CC2)C(=O)C(C)=C(N2CC2)C1=O (stereo unspecified) | 0.26 µM | –
O=C(/C=C/c1c(O)ccc2ccccc12)c1ccc2ccccc2c1 | > 100 µM | –
N#CC(C#N)=c1[nH]c2cccc3c2-c2c(cccc2c3=C(C#N)C#N)[nH]1 | > 100 µM | –
Cc1cc(C)n(CCNCCn2nc(C)cc2C)n1 | > 100 µM | –
COc1cc2c(cc1OCc1ccccc1)CNCC2 | > 100 µM | –
O=C(CN1CCCCC1)N1CCc2c([nH]c3ccccc23)C1c1cccnc1 (stereo unspecified) | > 100 µM | –
O=C(O)c1cc(O)c2c(c1)C(C1c3cc(C(=O)O)cc(O)c3C(=O)c3c(OC4OC(CO)C(O)C(O)C4O)cccc31)c1cccc(OC3OC(CO)C(O)C(O)C3O)c1C2=O (stereo unspecified) | > 100 µM | > 100 µM
COc1cc2cn3c4ccc(O)cc4[nH]c(=O)c3c2cc1OC | 0.0263 µM | < 0.01 µM
Cc1n(Cc2ccc3ccccc3c2)cc[n+]1Cc1ccc2ccccc2c1 | 1.81 µM | 0.256 µM
